Experimental data: ChEMBL document CHEMBL4130392, “Eugenol derived immunomodulatory molecules against visceral leishmaniasis” (Eur J Med Chem, 2017)
The source made the active and inactive calls. The rule behind the calls is not given here.

What was measured:
Leishmania donovani [1] = test: Antileishmanial activity against Leishmania donovani MHOM/IN/AG/83 promastigotes after 48 hrs by MTT assay; assay type: functional, organism-based; details: MHOM/IN/AG/83, 48 h
Leishmania donovani [2] = test: Antileishmanial activity against Leishmania donovani MHOM/IN/AG/83 amastigotes infected in BALB/c mouse peritoneal macrophages after 42 hrs by Giemsa staining-based microscopic analysis; assay type: functional, organism-based; details: MHOM/IN/AG/83, 42 h
RAW264.7 = test: Cytotoxicity against mouse RAW264.7 cells after 48 hrs by MTT assay; assay type: cell-based; details: RAW264.7, 48 h
Peritoneal macrophage [3] = test: Cytotoxicity against BALB/c mouse peritoneal macrophages after 48 hrs by MTT assay; assay type: cell-based
[4] = Therapeutic index, ratio of IC50 for mouse RAW264.7 cells to IC50 for Leishmania donovani MHOM/IN/AG/83 promastigotes; assay type: toxicity; details: read-out: Ratio IC50
[5] = Therapeutic index, ratio of EC50 for BALB/c mouse peritoneal macrophages to EC50 for Leishmania donovani MHOM/IN/AG/83 amastigotes; assay type: toxicity; details: read-out: Ratio EC50
Peritoneal macrophage [6] = test: Induction of NO generation in Leishmania donovani MHOM/IN/AG/83 infected BALB/c mouse peritoneal macrophages assessed as nitrite levels after 48 hrs by Griess assay relative to untreated control; assay type: functional
[7] = Drug uptake in mouse RAW264.7 cells assessed as retention time at 10 ug/ml incubated for 3 hrs by HPLC method; assay type: ADME, cell-based; details: raw264.7, 3 h
[8] = Drug uptake in mouse RAW264.7 cells assessed as ratio of drug level (cell lysate)/(drug level (supernatant) + drug level (cell lysate) at 10 ug/ml incubated for 3 hrs by HPLC method; assay type: ADME, cell-based; details: raw264.7, 3 h
Peritoneal macrophage [9] = test: Induction of innate immune response in Leishmania donovani MHOM/IN/AG/83 infected BALB/c mouse peritoneal macrophages assessed as increase in iNOS2 mRNA expression at 2.5 ug/ml incubated for 6 hrs by RT-PCR analysis relative to control; assay type: functional
Peritoneal macrophage [10] = test: Induction of innate immune response in Leishmania donovani MHOM/IN/AG/83 infected BALB/c mouse peritoneal macrophages assessed as reduction in arginase 1 activity at 1 to 5 ug/ml incubated for 48 hrs using L-arginine and by spectrometry relative to control; assay type: functional
Peritoneal macrophage [11] = test: Induction of innate immune response in Leishmania donovani MHOM/IN/AG/83 infected BALB/c mouse peritoneal macrophages assessed as upregulation of IL-12 levels at 2.5 ug/ml after 24 hrs by sandwich ELISA; assay type: functional
Peritoneal macrophage [12] = test: Induction of innate immune response in Leishmania donovani MHOM/IN/AG/83 infected BALB/c mouse peritoneal macrophage assessed as downregulation of IL-10 levels at 2.5 ug/ml after 24 hrs by sandwich ELISA; assay type: functional
Peritoneal macrophage [13] = test: Induction of innate immune response in Leishmania donovani MHOM/IN/AG/83 infected BALB/c mouse peritoneal macrophages assessed as upregulation of IL-12 mRNA expression at 2.5 ug/ml after 6 hrs by RT-PCR analysis; assay type: functional, cell-based
Peritoneal macrophage [14] = test: Induction of innate immune response in Leishmania donovani MHOM/IN/AG/83 infected BALB/c mouse peritoneal macrophages assessed as downregulation of IL-10 mRNA expression at 2.5 ug/ml after 6 hrs by RT-PCR analysis; assay type: functional, cell-based
Leishmania donovani [15] = test: Antileishmanial activity against Leishmania donovani MHOM/IN/AG/83 promastigotes infected in BALB/c mouse assessed as reduction of parasite burden in liver at 10 mg/kg, iv administered starting 2 weeks of post infection with five days interval between each treatment and measured after 28 days of treatment by Giemsa staining-based assay; assay type: functional; set-up: scale not given: the % may be the effect or the level left
Leishmania donovani [16] = test: Antileishmanial activity against Leishmania donovani MHOM/IN/AG/83 promastigotes infected in BALB/c mouse assessed as reduction of parasite burden in liver at 25 mg/kg, iv administered starting 2 weeks of post infection with five days interval between each treatment and measured after 28 days of treatment by Giemsa staining-based assay; assay type: functional; set-up: scale not given: the % may be the effect or the level left
Leishmania donovani [17] = test: Antileishmanial activity against Leishmania donovani MHOM/IN/AG/83 promastigotes infected in BALB/c mouse assessed as reduction of parasite burden in spleen at 10 mg/kg, iv administered starting 2 weeks of post infection with five days interval between each treatment and measured after 28 days of treatment by Giemsa staining-based assay; assay type: functional; set-up: scale not given: the % may be the effect or the level left
Leishmania donovani [18] = test: Antileishmanial activity against Leishmania donovani MHOM/IN/AG/83 promastigotes infected in BALB/c mouse assessed as reduction of parasite burden in spleen at 25 mg/kg, iv administered starting 2 weeks of post infection with five days interval between each treatment and measured after 28 days of treatment by Giemsa staining-based assay; assay type: functional; set-up: scale not given: the % may be the effect or the level left
Mus musculus [19] = species: Mus musculus; test: Induction of innate immune response in splenocytes derived from compound treated BALB/c mouse infected with Leishmania donovani MHOM/IN/AG/83 by Griess assay; assay type: functional
Mus musculus [20] = species: Mus musculus; test: Induction of innate immune response in splenocytes derived from compound treated BALB/c mouse infected with Leishmania donovani MHOM/IN/AG/83 assessed as increase in iNOS2 mRNA expression by RT-PCR analysis; assay type: functional
Mus musculus [21] = species: Mus musculus; test: Induction of innate immune response in splenocytes derived from compound treated BALB/c mouse infected with Leishmania donovani MHOM/IN/AG/83 assessed as reduction in arginase-1 activity using L-arginine by spectrometry relative to control; assay type: functional
Mus musculus [22] = species: Mus musculus; test: Induction of innate immune response in splenocytes derived from compound treated BALB/c mouse infected with Leishmania donovani MHOM/IN/AG/83 assessed as upregulation of IL-12 mRNA expression by RT-PCR analysis; assay type: functional, organism-based
Mus musculus [23] = species: Mus musculus; test: Induction of innate immune response in splenocytes derived from compound treated BALB/c mouse infected with Leishmania donovani MHOM/IN/AG/83 assessed as downregulation of IL-10 mRNA expression by RT-PCR analysis; assay type: functional, organism-based
Mus musculus [24] = species: Mus musculus; test: Induction of innate immune response in splenocytes derived from compound treated BALB/c mouse infected with Leishmania donovani MHOM/IN/AG/83 assessed as upregulation of IFNgamma mRNA expression levels by RT-PCR analysis; assay type: functional, organism-based
[25] = Ratio of therapeutic index of test compound to Amphotericin B by measuring ratio of IC50 for BALB/c mouse peritoneal macrophages to IC50 for Leishmania donovani MHOM/IN/AG/83 amastigotes; assay type: toxicity
[26] = Ratio of therapeutic index of test compound to Miltefosine by measuring ratio of IC50 for BALB/c mouse peritoneal macrophages to IC50 for Leishmania donovani MHOM/IN/AG/83 amastigotes; assay type: toxicity
[27] = Binding affinity to plasma membrane of mouse RAW264.7 cells at 10 uM using compound with fluorophoric moiety attached via carbamate linkage by fluorescence microscopy; assay type: ADME, cell-based; details: raw264.7, 10 µM
Peritoneal macrophage [28] = test: Induction of NO generation in Leishmania donovani MHOM/IN/AG/83 infected BALB/c mouse peritoneal macrophages assessed as increase in nitrite levels at 1 ug/ml after 48 hrs by Griess assay relative to untreated control; assay type: functional
Peritoneal macrophage [29] = test: Induction of NO generation in Leishmania donovani MHOM/IN/AG/83 infected BALB/c mouse peritoneal macrophages assessed as increase in nitrite levels at 2.5 ug/ml after 48 hrs by Griess assay relative to untreated control; assay type: functional
Peritoneal macrophage [30] = test: Induction of NO generation in Leishmania donovani MHOM/IN/AG/83 infected BALB/c mouse peritoneal macrophages assessed as increase in nitrite levels at 5 ug/ml after 48 hrs by Griess assay relative to untreated control; assay type: functional
Mus musculus [31] = species: Mus musculus; test: Induction of innate immune response in splenocytes derived from compound treated BALB/c mouse infected with Leishmania donovani MHOM/IN/AG/83 assessed as reduction in arginase-1 expression by RT-PCR analysis relative to untreated control; assay type: functional
Mus musculus [32] = species: Mus musculus; test: Induction of innate immune response in splenocytes derived from compound treated BALB/c mouse infected with Leishmania donovani MHOM/IN/AG/83 assessed as upregulation of IL-12 protein expression by sandwich ELISA; assay type: functional, organism-based
Mus musculus [33] = species: Mus musculus; test: Induction of innate immune response in splenocytes derived from compound treated BALB/c mouse infected with Leishmania donovani MHOM/IN/AG/83 assessed as downregulation of IL-10 protein expression by sandwich ELISA; assay type: functional, organism-based
Mus musculus [34] = species: Mus musculus; test: Induction of innate immune response in splenocytes derived from compound treated BALB/c mouse infected with Leishmania donovani MHOM/IN/AG/83 assessed as upregulation of IFNgamma protein expression levels by sandwich ELISA; assay type: functional, organism-based

For `C=CCc1ccc(OC(=O)CCCCCCCCCCCCCCCCC)c(OC)c1`, the IC50 (Leishmania donovani [1]) was 20.1 µM, the EC50 (Leishmania donovani [2]) was 4.25 µM and the IC50 (RAW264.7) was 305 µM. It also gave an EC50 (Peritoneal macrophage [3]) of 346 µM, a selectivity ratio [4] of 15.2 and a selectivity ratio [5] of 82.2. For the same compound, the Activity (Peritoneal macrophage [6]) was “Dose-dependent effect”, the Activity (Peritoneal macrophage [6]; record 2) was 38.83 µM and the Retention_time [7] was 3.173 min. The Ratio [8] was 0.62, the “fold change (FC)” value (Peritoneal macrophage [9]) was 8 and the “fold change (FC)” value (Peritoneal macrophage [10]) was 4. For the same compound, the “fold change (FC)” value (Peritoneal macrophage [11]) was 5, the “fold change (FC)” value (Peritoneal macrophage [12]) was 3 and the Activity (Peritoneal macrophage [13]) was “Active”. The Activity (Peritoneal macrophage [14]) was “Active”, the Activity (Leishmania donovani [15]) was 81% and the Activity (Leishmania donovani [16]) was 92%. The Activity (Leishmania donovani [17]) was 72%, the Activity (Leishmania donovani [18]) was 87% and the “fold change (FC)” value (Mus musculus [19]) was 8. The “fold change (FC)” value (Mus musculus [20]) was 8, the “fold change (FC)” value (Mus musculus [21]) was 4 and the Activity (Mus musculus [22]) was “Active”. For the same compound, the Activity (Mus musculus [23]) was “Active”, the Activity (Mus musculus [24]) was “Active” and the Ratio [25] was 10 to 13. For the same compound, the Ratio [26] was 10 to 13, the Activity [27] was “Active” and the “fold change (FC)” value (Peritoneal macrophage [28]) was 3. For the same compound, the “fold change (FC)” value (Peritoneal macrophage [29]) was 7, the “fold change (FC)” value (Peritoneal macrophage [30]) was 8 and the “fold change (FC)” value (Mus musculus [31]) was 4. The Activity (Mus musculus [32]) was “Active”, the Activity (Mus musculus [33]) was “Active” and the Activity (Mus musculus [34]) was “Active”.
